Entries after “also recorded” stand apart in the source; their conditions may differ.
Assays:
[1] = Absorption (AUC) of cannabinoid and primary metabolite in blood after dosing; settings: after oropharyngeal (buccal) administration compared with sublingual
[2] = stated as known; cited from earlier work
[3] = CBD given before THC, cognitive effects; assay type: in vivo; settings: CBD (or CBDV) administered before THC; not observed if THC is given before CBD
[4] = Solubility of cannabinoids
[5] = Table 3; Brown, 1998; cited from earlier work
[6] = Stability on storage, assay as percentage of initial value; assay type: physicochemical; settings: for stability in the formulation (in words): conclusion from Table 5
Source text: The data are reported as percentage of initial assay value.

CB1 (Brain receptors) = CB1 (Brain receptors) (Homo sapiens, UniProt P21554); settings: cited from earlier work
Chain of CB1 (Brain receptors) (P21554 whole entry, species assumed): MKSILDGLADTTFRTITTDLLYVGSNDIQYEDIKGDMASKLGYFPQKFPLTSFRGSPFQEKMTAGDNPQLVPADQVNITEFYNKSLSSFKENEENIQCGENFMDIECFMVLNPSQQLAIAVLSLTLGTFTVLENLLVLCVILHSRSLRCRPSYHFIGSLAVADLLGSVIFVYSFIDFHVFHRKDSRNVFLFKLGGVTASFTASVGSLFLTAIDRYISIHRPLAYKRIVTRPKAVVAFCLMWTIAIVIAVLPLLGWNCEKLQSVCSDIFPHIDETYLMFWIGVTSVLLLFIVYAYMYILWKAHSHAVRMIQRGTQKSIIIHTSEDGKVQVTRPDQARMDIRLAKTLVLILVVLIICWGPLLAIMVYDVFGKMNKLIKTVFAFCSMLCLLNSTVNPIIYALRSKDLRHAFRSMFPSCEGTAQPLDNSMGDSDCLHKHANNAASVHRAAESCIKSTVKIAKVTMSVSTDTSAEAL

[7] = Pain relief, THC alone vs extract of cannabis; assay type: in vivo; settings: THC alone vs same quantity of THC given as an extract of cannabis
[8] = Table 3 footnote; naïve patients may show postural hypotension, hypertension reported on prolonged usage; cited from earlier work
[9] = Table 3 footnote; cited from earlier work
[10] = Subject reports on THCV (mood enhancement, hangover); assay type: in vivo; settings: compared with THC
[11] = Analgesic effect of THCV vs THC; assay type: in vivo; settings: compared with THC

CCCCCc1cc(O)c2c(c1)OC(C)(C)[C@@H]1CCC(CO)=C[C@@H]21 [11 OH THC]
reduction in the amount of 11 OH metabolite detected [1]: approximately 25% | psychoactivity relative to parent compound [2]: possibly more psychoactive than the parent compound

C=C(C)[C@@H]1CCC(C)=C[C@H]1c1c(O)cc(CCCCC)cc1O [CBD, cannabidiol]
psychoactive effects of THC [3]: diminished | subsequent sedation [3]: postponed and mitigated | solubility in aqueous excipients [4]: very low solubility | Anti-inflammatory [5]: ∀ | stability in the formulation (in words) [6]: good stability | effect as pharmaceutical stabilizer ([6]; observation of the applicants): able to act as a pharmaceutical stabilizer of pharmaceutical formulations and thus prolong shelf-life | CB1 (Brain receptors) (CB1 (Brain receptors)): ∀

C=C(C)[C@@H]1CCC(C)=C[C@H]1c1c(O)cc(CCC)cc1O [CBDV, cannabidivarin]
psychoactive effects of THC [3]: diminished | subsequent sedation [3]: postponed and mitigated

CCCCCc1cc(O)c2c(c1)OC(C)(C)[C@@H]1CCC(C)=C[C@@H]21 [THC, Δ^9-tetrahydrocannabinol]
solubility in aqueous excipients [4]: very low solubility | amount of THC that could be stabilised ([4]; aerosol sprays containing ethanol plus a propellant): 0.7 mg of THC per 0.1 ml of liquid formulation | degree of pain relief [7]: lower degree of pain relief than the same quantity of THC given as an extract of cannabis | Anti-inflammatory [5]: ∀ | stability in the formulation (in words) [6]: less stable | effect on blood pressure (footnote ′) [8]: ′ THC has a biphasic effect on blood pressure; in naïve patients it may produce postural hypotension and it has also been reported to produce hypertension on prolonged usage. GW Internal Report No 002/000159. | convulsant effect (footnote H to Anticonvulsant) [9]: H THC is pro convulsant

CCCc1cc(O)c2c(c1)OC(C)(C)[C@@H]1CCC(C)=C[C@@H]21 [THCV, tetrahydrocannabinovarin]
hangover [10]: less severe hangover; also recorded: reduced potential for hangover | mood enhancement ([10]; reported by subjects taking THCV): less disturbing than that produced by THC | analgesic effect, speed [11]: more rapid analgesic effect than THC
